Structures are written as SMILES. Values joined by “and” are separate entries in the source; they are usually repeats but may differ in a detail not shown here. Equal values may be shown once. Toxic doses and inconclusive results are not listed.

In the test the test system is L1210 leukemia ip in BDF1 mice, survival T/C. The experiment in a line: NCI In Vivo Anticancer Drug Screen. Data for tumor model L1210 Leukemia (intraperitoneal) in B6D2F1 (BDF1) mice. Conditions: endpoint: mean survival time, higher = longer survival. In outline:
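Read-out is survival time, reported as the treated-group measurement over the vehicle-control measurement.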

The mark [1] stands for this setting: dose: 100.0 mg/kg/injection, schedule: Q01DX001 (ip), vehicle: Klucel (hydroxypropylcellulose) (HPC).
[2] abbreviates: dose: 100.0 mg/kg/injection, schedule: Q04DX003 (ip), vehicle: Klucel (hydroxypropylcellulose) (HPC).
[3] abbreviates: dose: 200.0 mg/kg/injection, schedule: Q01DX001 (ip), vehicle: Klucel (hydroxypropylcellulose) (HPC).
[4] abbreviates: dose: 200.0 mg/kg/injection, schedule: Q04DX003 (ip), vehicle: Klucel (hydroxypropylcellulose) (HPC).
[5] abbreviates: dose: 400.0 mg/kg/injection, schedule: Q04DX003 (ip), vehicle: Klucel (hydroxypropylcellulose) (HPC).
Where [6] appears, read: dose: 100.0 mg/kg/injection, schedule: Q04DX003 (ip), vehicle: saline with Tween-80.
Where [7] appears, read: dose: 200.0 mg/kg/injection, schedule: Q04DX003 (ip), vehicle: saline with Tween-80.
Where [8] appears, read: dose: 400.0 mg/kg/injection, schedule: Q04DX003 (ip), vehicle: saline with Tween-80.
Where [9] appears, read: dose: 100.0 mg/kg/injection, schedule: Q01DX009 (ip), vehicle: saline with Tween-80.
The mark [10] stands for this setting: dose: 200.0 mg/kg/injection, schedule: Q01DX009 (ip), vehicle: saline with Tween-80.
[11] abbreviates: dose: 400.0 mg/kg/injection, schedule: Q01DX009 (ip), vehicle: saline with Tween-80.
Setting [12] is: dose: 100.0 mg/kg/injection, schedule: Q01DX001 (ip), vehicle: saline.
Where [13] appears, read: dose: 200.0 mg/kg/injection, schedule: Q01DX001 (ip), vehicle: saline.
[14] abbreviates: dose: 400.0 mg/kg/injection, schedule: Q01DX001 (ip), vehicle: saline.

As for `CCC(OO)(C1=NC(C)(C)CO1)c1ccncc1Br` (stereo not drawn), the T/C is, setting by setting: under setting [1], 98 % of control; under setting [2], 97 % of control; under setting [3], 101 % of control; under setting [4], 101 % of control; under setting [5], 102 % of control.

In the case of `CCc1nc(=S)c2[nH]cnc2[nH]1`, the T/C is 93 % of control under setting [6], 90 % of control under setting [7] and 93 % of control under setting [8].

Take `ClCc1ccc2ccc3cccc4ccc1c2c34`: the T/C is 109 % of control (dose: 5.0 mg/kg/injection, schedule: Q01DX009 (ip), vehicle: carboxymethylcellulose (CMC)); 110 % of control (dose: 10.0 mg/kg/injection, schedule: Q01DX009 (ip), vehicle: carboxymethylcellulose (CMC)); 109 % of control (dose: 12.5 mg/kg/injection, schedule: Q01DX009 (ip), vehicle: carboxymethylcellulose (CMC)); 121 % of control (dose: 20.0 mg/kg/injection, schedule: Q01DX009 (ip), vehicle: carboxymethylcellulose (CMC)); 97 % of control (dose: 25.0 mg/kg/injection, schedule: Q01DX009 (ip), vehicle: carboxymethylcellulose (CMC)).

`COc1cc(/C=N/NC(N)=S)cc(OC)c1OC`: the T/C is 93 % of control under setting [9]; 108 % of control under setting [6]; 98 % of control under setting [10]; 110 % of control under setting [7]; 104 % of control under setting [11]; 106 % of control under setting [8].

With `CCOC(=O)C(NC(=O)NS(=O)(=O)c1ccc(C)cc1)C(=O)OCC`, the T/C was 91 % of control under setting [1]; 92 % of control under setting [3]; 91 % of control (dose: 400.0 mg/kg/injection, schedule: Q01DX001 (ip), vehicle: Klucel (hydroxypropylcellulose) (HPC)).

On to `O=C(N/C=C/NC(=O)Oc1c(I)cc(I)cc1I)Oc1c(I)cc(I)cc1I`, for which the T/C reads like this: (dose: 100.0 mg/kg/injection, schedule: Q01DX009 (ip), vehicle: Klucel (hydroxypropylcellulose) (HPC)) 92 % of control; (dose: 200.0 mg/kg/injection, schedule: Q01DX009 (ip), vehicle: Klucel (hydroxypropylcellulose) (HPC)) 100 % of control; (dose: 400.0 mg/kg/injection, schedule: Q01DX009 (ip), vehicle: Klucel (hydroxypropylcellulose) (HPC)) 102 % of control.

Regarding `O=C(Nc1ccc(C2=NCCN2)cc1)Nc1cccc(NC(=O)Nc2cccc(C3=NCCN3)c2)c1`, the T/C (dose: 1.0 mg/kg/injection, schedule: Q01DX Z (ip), vehicle: carboxymethylcellulose (CMC)) was 120 % of control and 90 % of control; the T/C (dose: 2.0 mg/kg/injection, schedule: Q01DX Z (ip), vehicle: carboxymethylcellulose (CMC)) is 101 % of control and 107 % of control; the T/C (dose: 4.0 mg/kg/injection, schedule: Q01DX Z (ip), vehicle: carboxymethylcellulose (CMC)) is 113 % of control; the T/C (dose: 8.0 mg/kg/injection, schedule: Q01DX Z (ip), vehicle: carboxymethylcellulose (CMC)) is 121 % of control and 244 % of control; the T/C (dose: 8.0 mg/kg/injection, schedule: Q01DX Z (ip), vehicle: water) was 286 % of control; the T/C (dose: 16.0 mg/kg/injection, schedule: Q01DX Z (ip), vehicle: carboxymethylcellulose (CMC)) was 332 % of control. Moreover, the T/C runs as follows: (dose: 16.0 mg/kg/injection, schedule: Q01DX Z (ip), vehicle: water) 172 % of control; (dose: 31.0 mg/kg/injection, schedule: Q01DX Z (oral), vehicle: water) 104 % of control; (dose: 62.0 mg/kg/injection, schedule: Q01DX Z (oral), vehicle: water) 112 % of control; (dose: 125.0 mg/kg/injection, schedule: Q01DX Z (oral), vehicle: water) 104 % of control; (dose: 250.0 mg/kg/injection, schedule: Q01DX Z (oral), vehicle: water) 102 % of control.

Regarding `CC(C)=CC(=O)OC1C2C(CC(C)C3C(O)CC(=O)C13C)OC(=O)C2C` (stereo not drawn), the T/C runs as follows: under setting [12], 107 % of control; under setting [13], 100 % of control; under setting [14], 97 % of control.

As for `CCCCC(CC)C1OCCS1` (stereo not drawn), the T/C is 96 % of control (dose: 100.0 mg/kg/injection, schedule: Q01DX009 (ip), vehicle: saline); 96 % of control (dose: 100.0 mg/kg/injection, schedule: Q04DX002 (ip), vehicle: saline); 107 % of control (dose: 200.0 mg/kg/injection, schedule: Q01DX009 (ip), vehicle: saline); 92 % of control (dose: 200.0 mg/kg/injection, schedule: Q04DX002 (ip), vehicle: saline); 104 % of control (dose: 400.0 mg/kg/injection, schedule: Q01DX009 (ip), vehicle: saline); 99 % of control (dose: 400.0 mg/kg/injection, schedule: Q04DX002 (ip), vehicle: saline).

On to `OCC(CO)=C1c2ccccc2-c2ccccc21`, for which the T/C is, setting by setting: (dose: 100.0 mg/kg/injection, schedule: Q## X003 (ip), vehicle: acetone) 102 % of control; (dose: 200.0 mg/kg/injection, schedule: Q## X003 (ip), vehicle: acetone) 101 % of control; (dose: 400.0 mg/kg/injection, schedule: Q## X003 (ip), vehicle: acetone) 104 % of control.

Turning to `Cc1c2ccn(O)cc2cc2c1nc1ccccc12`, the T/C is, setting by setting: (dose: 18.75 mg/kg/injection, schedule: Q01DX009 (ip), vehicle: other) 116 % of control; (dose: 37.5 mg/kg/injection, schedule: Q01DX009 (ip), vehicle: other) 114 % of control; (dose: 75.0 mg/kg/injection, schedule: Q01DX009 (ip), vehicle: other) 112 % of control; (dose: 150.0 mg/kg/injection, schedule: Q01DX009 (ip), vehicle: other) 110 % of control.

With `[Cu+2].[NH-]C(CCC(N)=O)C(=O)O.[NH-]C(CCC(N)=O)C(=O)O` (stereo not drawn), the T/C (dose: 6.25 mg/kg/injection, schedule: Q04DX003 (ip), vehicle: saline) is 96 % of control; the T/C (dose: 12.5 mg/kg/injection, schedule: Q04DX003 (ip), vehicle: saline) is 91 % of control; the T/C (dose: 25.0 mg/kg/injection, schedule: Q04DX003 (ip), vehicle: saline) was 100 % of control.

For `CN(C)C(=S)Oc1cc(Cl)c(Cl)cc1Cl`, the T/C is, setting by setting: under setting [2], 96 % of control; under setting [4], 95 % of control; under setting [5], 90 % of control.

As to `CCCCCCCCCCCCOC(N)=O`, the T/C is 103 % of control (dose: 50.0 mg/kg/injection, schedule: Q01DX009 (ip), vehicle: saline with Tween-80); 101 % of control under setting [9]; 103 % of control under setting [6]; 101 % of control under setting [10]; 108 % of control under setting [7]; 88 % of control under setting [8].

With `CNc1ccccc1C(=O)N/N=C/c1cccc([N+](=O)[O-])c1`, the T/C is 93 % of control (dose: 100.0 mg/kg/injection, schedule: Q04DX002 (ip), vehicle: Klucel (hydroxypropylcellulose) (HPC)); 96 % of control (dose: 200.0 mg/kg/injection, schedule: Q04DX002 (ip), vehicle: Klucel (hydroxypropylcellulose) (HPC)); 86 % of control (dose: 400.0 mg/kg/injection, schedule: Q04DX002 (ip), vehicle: Klucel (hydroxypropylcellulose) (HPC)).

With `Cc1cncc(CC(O)(C(F)(F)F)C(F)(F)F)n1`, the T/C reads like this: under setting [12], 102 % of control; under setting [9], 97 % of control; under setting [13], 96 % of control; under setting [10], 103 % of control; under setting [14], 104 % of control; under setting [11], 101 % of control.

The values above are taken from PubChem BioAssay AID248 (DTP/NCI, 2004).
